Where “and” joins values, the source holds several entries; their conditions need not be identical. Identical values can stand only once.
Tested on: α7 nAChR
Experiment: Dynamic PET studies in piglets with kinetic modelling (2TCM)
Assay type: in vivo
Parameters: clearance rate constant k2, mean: unit not given here
Details: for BPND / Rate Constant K1 / Rate Constant k2 / Rate Constant k3 / Rate Constant k4 / VND: piglet brain, 240 min scan data; for total volume of distribution VT: piglet, K1/k2(1 + k3/k4)
Experimental: One-tissue and two-tissue compartment models (1TCM and 2TCM) were evaluated for mathematical description of [^18F]10a time-activity curves (TACs) in pig brain regions (Figure 3) using metabolite-corrected arterial plasma input functions. The 2TCM was identified as the more appropriate model based on its smaller Akaike information criterion (AIC) value. The four rate constants K1, k2, k3, and k4 were fitted and the non-displaceable volume of distribution (VND = K1/k2) and the binding potential (BPND = k3/k4) as defined by Innis et al. were calculated for each region of interest (Table 3 and Table 4).
Six female animals were used in this study with anesthesia and surgery performed as described previously. In brief, the animals received initially a premedication with midazolam (1 mg∙kg^−1 i.m.) followed by induction of anesthesia with 3% isoflurane in 70% N2O/30% O2. All incision sites were infiltrated with 1% lidocaine, and the anesthesia was maintained with 1.5% isoflurane throughout the surgical procedure. A central venous catheter was introduced through the left external jugular vein and used for the administration of the radiotracer and drugs, and for volume substitution with heparinized (50 IE∙mL^−1) lactated Ringer’s solution (2 mL∙kg^−1∙h^−1). An endotracheal tube was inserted by tracheotomy for artificial ventilation (Servo Ventilator 900C, Siemens-Elema, Solna, Sweden) after immobilization with pancuronium bromide (0.2 mg∙kg^−1∙h^−1). The artificial ventilation was adjusted to obtain normoxia and normocapnia (Radiometer ABL 500, Copenhagen, Denmark). Polyurethane catheters (i.d., 0.5 mm) were advanced through the left and the right femoral arteries into the abdominal aorta to withdraw arterial blood samples for regular monitoring of blood gases and for radiotracer input function measurements and metabolite analyses. The body temperature was monitored by a rectal temperature probe and maintained at ~38 °C by a heating pad. After the surgical procedure has been completed, anesthesia was maintained with 0.5% isoflurane in 70% N2O/30% O2, and the animals were allowed to stabilize for 1 h before imaging procedure.
PET imaging was performed according to the protocol described recently. In brief, a clinical tomograph (ECAT Exact HR+; Siemens Healthcare GmbH, Erlangen, Germany) was used with animals lying prone with the head placed in a custom-made head holder. For attenuation and scatter correction, transmission scans were acquired using three rotating ^68Ge rod sources. The radiotracer was injected as an intravenous (i.v.) bolus (10 mL saline with 340–494 MBq [^18F]10a) by a syringe pump within 2 min followed by flushing with 10 mL heparinized saline (50 IE∙mL^−1). PET scanning started at the time of injection (0 min) and dynamic emission data were acquired for a total of 240 min. Three animals were investigated under baseline conditions, and another three under blocking conditions with administration of 3 mg∙kg^−1 i.v. of the α7 nAChR partial agonist NS6740 at 3 min before radiotracer injection followed by a continuous infusion throughout the scan (1 mg∙kg^−1∙h^−1).
Arterial blood was sampled using a peristaltic pump during the first 20 min of the scan followed by manual sampling at 25, 30, 40, 50, 60, 90, 120, 150, 180, 210, and 240 min after injection. Plasma was obtained by centrifugation (13,000 rpm, 2 min at 21 °C) and total radioactivity concentration was measured using a gamma-counter (1470 Wizard; PerkinElmer, Shelton, CT, USA) cross-calibrated to the PET scanner. In addition, arterial whole blood was sampled manually at 4, 16, 30, 60, and 120 min p.i. and plasma obtained for metabolite analyses to determine the fraction of non-metabolized [^18F]10a.
The plasma input function was corrected for the presence of radioactive metabolites by determination of the parent fraction as described previously. […]

[1] = Cerebellum, blocking (NS6740), n = 3
[2] = Colliculi, blocking (NS6740), n = 3
[3] = Frontal Cortex, baseline, n = 3
[4] = Frontal Cortex, blocking (NS6740), n = 3
[5] = Hippocampus, blocking (NS6740), n = 3
[6] = Midbrain, blocking (NS6740), n = 3
[7] = Occipital Cortex, baseline, n = 3
[8] = Occipital Cortex, blocking (NS6740), n = 3
[9] = Parietal Cortex, baseline, n = 3
[10] = Parietal Cortex, blocking (NS6740), n = 3
[11] = Striatum, blocking (NS6740), n = 3
[12] = Thalamus, blocking (NS6740), n = 3
[13] = Whole, blocking (NS6740), n = 3

O=S1(=O)c2ccc([18F])cc2-c2ccc(N3CCN4CCC3CC4)cc21 [[^18F]10a]
increase of VND under blocking conditions (NS6740 vs baseline): up to 4 fold
time of peak concentrations of radioactivity in the brain (baseline, i.v., n = 3): 8–10 min p.i.
SUVmax (baseline, other brain regions): 1.9–2.1
SUVmax (baseline, thalamus, colliculi, and midbrain): > 2.2
BPND (Cerebellum, baseline, n = 3): 2.5 and 2.53 ± 0.57
Rate Constant K1 (Cerebellum, baseline, n = 3): 0.421 ± 0.048 mL·cm^−3·min^−1
Rate Constant k2 (Cerebellum, baseline, n = 3): 0.131 ± 0.052 min⁻¹
Rate Constant k3 (Cerebellum, baseline, n = 3): 0.067 ± 0.051 min⁻¹
Rate Constant k4 (Cerebellum, baseline, n = 3): 0.026 ± 0.020 min⁻¹
VND (Cerebellum, baseline, n = 3): 3.62 ± 1.47
BPND [1]: 0.71 ± 1.10
Rate Constant K1 [1]: 0.711 ± 0.148 mL·cm^−3·min^−1
Rate Constant k2 [1]: 0.076 ± 0.014 min⁻¹
Rate Constant k3 [1]: 0.016 ± 0.019 min⁻¹
Rate Constant k4 [1]: 0.011 ± 0.016 min⁻¹
VND [1]: 9.75 ± 3.57
BPND (Colliculi, baseline, n = 3): 2.68 ± 1.42
Rate Constant K1 (Colliculi, baseline, n = 3): 0.450 ± 0.072 mL·cm^−3·min^−1
Rate Constant k2 (Colliculi, baseline, n = 3): 0.134 ± 0.074 min⁻¹
Rate Constant k3 (Colliculi, baseline, n = 3): 0.070 ± 0.042 min⁻¹
Rate Constant k4 (Colliculi, baseline, n = 3): 0.027 ± 0.018 min⁻¹
VND (Colliculi, baseline, n = 3): 4.19 ± 2.37
BPND [2]: 0.73 ± 0.74
Rate Constant K1 [2]: 0.735 ± 0.182 mL·cm^−3·min^−1
Rate Constant k2 [2]: 0.066 ± 0.007 min⁻¹
Rate Constant k3 [2]: 0.011 ± 0.013 min⁻¹
Rate Constant k4 [2]: 0.007 ± 0.015 min⁻¹
VND [2]: 11.41 ± 3.90
BPND [3]: 4.22 ± 2.93
Rate Constant K1 [3]: 0.387 ± 0.059 mL·cm^−3·min^−1
Rate Constant k2 [3]: 0.182 ± 0.153 min⁻¹
Rate Constant k3 [3]: 0.142 ± 0.165 min⁻¹
Rate Constant k4 [3]: 0.027 ± 0.015 min⁻¹
VND [3]: 3.32 ± 2.06
BPND [4]: 0.86 ± 0.92
Rate Constant K1 [4]: 0.647 ± 0.117 mL·cm^−3·min^−1
Rate Constant k2 [4]: 0.055 ± 0.011 min⁻¹
Rate Constant k3 [4]: 0.014 ± 0.019 min⁻¹
Rate Constant k4 [4]: 0.010 ± 0.020 min⁻¹
VND [4]: 12.34 ± 4.27
BPND (Hippocampus, baseline, n = 3): 5.5 and 5.50 ± 1.01
Rate Constant K1 (Hippocampus, baseline, n = 3): 0.400 ± 0.023 mL·cm^−3·min^−1
Rate Constant k2 (Hippocampus, baseline, n = 3): 0.188 ± 0.083 min⁻¹
Rate Constant k3 (Hippocampus, baseline, n = 3): 0.145 ± 0.101 min⁻¹
Rate Constant k4 (Hippocampus, baseline, n = 3): 0.025 ± 0.013 min⁻¹
VND (Hippocampus, baseline, n = 3): 2.43 ± 0.96
BPND [5]: 0.84 ± 1.70
Rate Constant K1 [5]: 0.603 ± 0.118 mL·cm^−3·min^−1
Rate Constant k2 [5]: 0.063 ± 0.023 * min^−1
Rate Constant k3 [5]: 0.024 ± 0.030 min⁻¹
Rate Constant k4 [5]: 0.011 ± 0.015 min⁻¹
VND [5]: 10.81 ± 5.02
BPND (Midbrain, baseline, n = 3): 3.40 ± 1.73
Rate Constant K1 (Midbrain, baseline, n = 3): 0.436 ± 0.045 mL·cm^−3·min^−1
Rate Constant k2 (Midbrain, baseline, n = 3): 0.162 ± 0.117 min⁻¹
Rate Constant k3 (Midbrain, baseline, n = 3): 0.121 ± 0.132 min⁻¹
Rate Constant k4 (Midbrain, baseline, n = 3): 0.029 ± 0.022 min⁻¹
VND (Midbrain, baseline, n = 3): 4.04 ± 3.06
BPND [6]: 0.61 ± 0.77
Rate Constant K1 [6]: 0.685 ± 0.131 mL·cm^−3·min^−1
Rate Constant k2 [6]: 0.063 ± 0.010 min⁻¹
Rate Constant k3 [6]: 0.013 ± 0.014 min⁻¹
Rate Constant k4 [6]: 0.012 ± 0.018 min⁻¹
VND [6]: 11.17 ± 3.64
BPND [7]: 3.16 ± 1.11
Rate Constant K1 [7]: 0.395 ± 0.053 mL·cm^−3·min^−1
Rate Constant k2 [7]: 0.123 ± 0.063 min⁻¹
Rate Constant k3 [7]: 0.099 ± 0.087 min⁻¹
Rate Constant k4 [7]: 0.030 ± 0.023 min⁻¹
VND [7]: 4.07 ± 2.23
BPND [8]: 0.95 ± 1.03
Rate Constant K1 [8]: 0.668 ± 0.103 mL·cm^−3·min^−1
Rate Constant k2 [8]: 0.064 ± 0.019 min⁻¹
Rate Constant k3 [8]: 0.022 ± 0.032 min⁻¹
Rate Constant k4 [8]: 0.013 ± 0.023 min⁻¹
VND [8]: 11.36 ± 4.41
BPND [9]: 3.47 ± 1.65
Rate Constant K1 [9]: 0.399 ± 0.038 mL·cm^−3·min^−1
Rate Constant k2 [9]: 0.140 ± 0.089 min⁻¹
Rate Constant k3 [9]: 0.126 ± 0.135 min⁻¹
Rate Constant k4 [9]: 0.031 ± 0.021 min⁻¹
VND [9]: 3.88 ± 2.49
BPND [10]: 0.82 ± 0.88
Rate Constant K1 [10]: 0.659 ± 0.120 mL·cm^−3·min^−1
Rate Constant k2 [10]: 0.055 ± 0.013 min⁻¹
Rate Constant k3 [10]: 0.015 ± 0.020 min⁻¹
Rate Constant k4 [10]: 0.011 ± 0.021 min⁻¹
VND [10]: 12.58 ± 4.52
BPND (Pons, baseline, n = 3): 2.76 ± 0.81
Rate Constant K1 (Pons, baseline, n = 3): 0.440 ± 0.045 mL·cm^−3·min^−1
Rate Constant k2 (Pons, baseline, n = 3): 0.149 ± 0.059 min⁻¹
Rate Constant k3 (Pons, baseline, n = 3): 0.068 ± 0.042 min⁻¹
Rate Constant k4 (Pons, baseline, n = 3): 0.026 ± 0.019 min⁻¹
VND (Pons, baseline, n = 3): 3.32 ± 1.40
BPND (Pons, blocking (NS6740), n = 3): 0.76 ± 1.16
Rate Constant K1 (Pons, blocking (NS6740), n = 3): 0.670 ± 0.092 mL·cm^−3·min^−1
Rate Constant k2 (Pons, blocking (NS6740), n = 3): 0.084 ± 0.030 min⁻¹
Rate Constant k3 (Pons, blocking (NS6740), n = 3): 0.019 ± 0.023 min⁻¹
Rate Constant k4 (Pons, blocking (NS6740), n = 3): 0.012 ± 0.016 min⁻¹
VND (Pons, blocking (NS6740), n = 3): 8.93 ± 3.96
BPND (Striatum, baseline, n = 3): 3.98 ± 1.40
Rate Constant K1 (Striatum, baseline, n = 3): 0.382 ± 0.028 mL·cm^−3·min^−1
Rate Constant k2 (Striatum, baseline, n = 3): 0.144 ± 0.079 min⁻¹
Rate Constant k3 (Striatum, baseline, n = 3): 0.114 ± 0.093 min⁻¹
Rate Constant k4 (Striatum, baseline, n = 3): 0.027 ± 0.014 min⁻¹
VND (Striatum, baseline, n = 3): 3.35 ± 1.81
BPND [11]: 0.75 ± 1.29
Rate Constant K1 [11]: 0.624 ± 0.143 mL·cm^−3·min^−1
Rate Constant k2 [11]: 0.057 ± 0.015 min⁻¹
Rate Constant k3 [11]: 0.020 ± 0.025 min⁻¹
Rate Constant k4 [11]: 0.011 ± 0.017 min⁻¹
VND [11]: 11.78 ± 4.91
BPND (Thalamus, baseline, n = 3): 3.51 ± 1.13
Rate Constant K1 (Thalamus, baseline, n = 3): 0.448 ± 0.027 mL·cm^−3·min^−1
Rate Constant k2 (Thalamus, baseline, n = 3): 0.150 ± 0.071 min⁻¹
Rate Constant k3 (Thalamus, baseline, n = 3): 0.111 ± 0.085 min⁻¹
Rate Constant k4 (Thalamus, baseline, n = 3): 0.030 ± 0.018 min⁻¹
VND (Thalamus, baseline, n = 3): 3.67 ± 2.10
BPND [12]: 0.88 ± 1.00
Rate Constant K1 [12]: 0.762 ± 0.129 mL·cm^−3·min^−1
Rate Constant k2 [12]: 0.070 ± 0.025 min⁻¹
Rate Constant k3 [12]: 0.023 ± 0.031 min⁻¹
Rate Constant k4 [12]: 0.012 ± 0.021 min⁻¹
VND [12]: 12.09 ± 5.31
BPND (Whole, baseline, n = 3): 3.31 ± 1.02
Rate Constant K1 (Whole, baseline, n = 3): 0.362 mL·cm^−3·min^−1 and 0.362 ± 0.038 mL·cm^−3·min^−1
Rate Constant k2 (Whole, baseline, n = 3): 0.131 ± 0.062 min⁻¹
Rate Constant k3 (Whole, baseline, n = 3): 0.093 ± 0.074 min⁻¹
Rate Constant k4 (Whole, baseline, n = 3): 0.027 ± 0.018 min⁻¹
VND (Whole, baseline, n = 3): 3.32 ± 1.74
BPND [13]: 0.84 ± 1.07
Rate Constant K1 [13]: 0.598 ± 0.108 mL·cm^−3·min^−1
Rate Constant k2 [13]: 0.062 ± 0.015 min⁻¹
Rate Constant k3 [13]: 0.018 ± 0.022 min⁻¹
Rate Constant k4 [13]: 0.011 ± 0.018 min⁻¹
VND [13]: 10.27 ± 3.94
total volume of distribution VT (cerebellum, baseline): 13 mL∙cm^−3
total volume of distribution VT (thalamus, baseline): 17 mL∙cm^−3
clearance rate constant k2, mean (whole brain, baseline): 0.131

Source: paper PMC6332508, “A Promising PET Tracer for Imaging of α7 Nicotinic Acetylcholine Receptors in the Brain: Design, Synthesis, and in Vivo Evaluation of a Dibenzothiophene-Based Radioligand” (Molecules, 2015)
